Laboratory results: article PMC8301423, “The Effects of Temperature and Pressure on Protein-Ligand Binding in the Presence of Mars-Relevant Salts” (Biology, 2021)

Target: T1, bovine serum albumin (BSA) (Bos taurus, UniProt P02769)
T1 construct: BSA, molecular weight of 66 kDa, 583 residues; purchased Sigma Aldrich Chemicals (Taufkirchen, Germany)
Test: Job's plot (method of continuous variation) by steady-state fluorescence for binding stoichiometry
Details: 1 bar
Description: First, we explored the impact of 250 mM MgCl2, Mg(ClO4)2, and MgSO4 on the ligand binding process at 25 °C and ambient pressure (1 bar). To be able to determine the binding constant, it is of fundamental importance to exactly know the stoichiometry of the complex formed. In this way, a proper binding model can be applied in the data analysis of the measured binding isotherms, providing the most appropriate value of the binding constant, Kb. We applied the method of continuous variation (or Job’s plot) for the estimation of the binding stoichiometry by means of steady-state fluorescence spectroscopy. A series of solutions were prepared such that the total concentration (i.e., [ANS] + [BSA]) is constant, while the mole fractions of the interacting partners were varied. Discontinuities in the plot of fluorescence intensity vs. xANS (where xANS is the mole fraction of ANS) are indicative of the stoichiometry of the complex formed.

[1] = 250 mM Mg(ClO4)2, 25 °C, [ANS]+[BSA] 35 µM

T1 sequence (P02769 25-607): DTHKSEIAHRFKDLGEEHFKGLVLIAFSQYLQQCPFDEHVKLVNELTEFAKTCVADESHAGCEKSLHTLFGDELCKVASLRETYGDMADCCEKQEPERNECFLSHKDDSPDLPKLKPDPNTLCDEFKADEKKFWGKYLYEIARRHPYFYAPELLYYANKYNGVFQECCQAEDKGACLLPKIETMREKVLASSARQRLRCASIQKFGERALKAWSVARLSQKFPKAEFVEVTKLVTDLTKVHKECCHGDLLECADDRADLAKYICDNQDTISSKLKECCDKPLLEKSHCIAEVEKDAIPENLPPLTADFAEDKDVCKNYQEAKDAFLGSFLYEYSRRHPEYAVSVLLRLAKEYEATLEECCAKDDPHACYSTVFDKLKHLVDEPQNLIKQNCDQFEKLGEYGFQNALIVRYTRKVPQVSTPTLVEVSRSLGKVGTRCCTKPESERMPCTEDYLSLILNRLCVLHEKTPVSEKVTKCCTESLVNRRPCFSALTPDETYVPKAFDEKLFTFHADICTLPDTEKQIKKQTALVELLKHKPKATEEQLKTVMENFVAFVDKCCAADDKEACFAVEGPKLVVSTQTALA

Structure (SMILES): O=S(=O)(O)c1cccc2cccc(Nc3ccccc3)c12 [ANS, 8-anilinonaphthalene-1-sulfonic acid]
- ANS molecules bound to one BSA molecule (250 mM Mg(ClO4)2, 25 °C): two
- Job's plot first inflection point xANS [1]: 0.5
- Job's plot second inflection point xANS [1]: ≈ 0.65
- Job's plot inflection point xANS (mole fraction of ANS) (250 mM MgCl2, 25 °C, [ANS]+[BSA] 35 µM): ≈ 0.75
- ANS molecules bound to one BSA molecule (250 mM MgSO4, 25 °C): three
- Job's plot inflection point xANS (mole fraction of ANS) (250 mM MgSO4, 25 °C, [ANS]+[BSA] 35 µM): ≈ 0.75
